Values of other authors as cited in patent US20080038350A1, “LOW-DOSAGE PERORAL MEDICATION FOR CONTRACEPTION CONTAINING CRYSTALLINE DIENOGEST AND ETHINYL ESTRADIOL” (priority 2006, published 2008).

Columns and labels:
[1] = single dosage
ovulation inhibition = conditions: micronized, average particle size of about 3 μm

For `C[C@H]1O[C@@H](O[C@H]2[C@@H](O)C[C@H](O[C@H]3[C@@H](O)C[C@H](O[C@H]4CC[C@@]5(C)[C@H](CC[C@@H]6[C@@H]5C[C@@H](O)[C@]5(C)[C@@H](C7=CC(=O)OC7)CC[C@]65O)C4)O[C@@H]3C)O[C@@H]2C)C[C@H](O)[C@@H]1O` [digoxin], which “plasma level, average particle size 3.7 μm versus powder of 22 μm” value [1] is on record?
The value was “nearly twice as high”.

With `C[C@]12CCC3=C4CCC(=O)C=C4CC[C@H]3[C@@H]1CC[C@@]2(O)CC#N` [dienogest, 17α-cyanomethyl-17β-hydroxyestra-4,9-dien-3-one] as the compound, how does the “optimum dosage for reliable ovulation inhibition” value (ovulation inhibition) read?
The value was 2 mg.
